IC50 and DC50 data for 23 compounds are collected here from patent US12384776B2, “Compounds and uses thereof” (Foghorn Therapeutics Inc., priority 2019, dated 2025).

Nanoluciferase-BRD9 fusion protein (3×FLAG-NLuc-BRD9) in SYO-1 cells, sequence (Q9H8M2 whole entry, the tested form may be a part): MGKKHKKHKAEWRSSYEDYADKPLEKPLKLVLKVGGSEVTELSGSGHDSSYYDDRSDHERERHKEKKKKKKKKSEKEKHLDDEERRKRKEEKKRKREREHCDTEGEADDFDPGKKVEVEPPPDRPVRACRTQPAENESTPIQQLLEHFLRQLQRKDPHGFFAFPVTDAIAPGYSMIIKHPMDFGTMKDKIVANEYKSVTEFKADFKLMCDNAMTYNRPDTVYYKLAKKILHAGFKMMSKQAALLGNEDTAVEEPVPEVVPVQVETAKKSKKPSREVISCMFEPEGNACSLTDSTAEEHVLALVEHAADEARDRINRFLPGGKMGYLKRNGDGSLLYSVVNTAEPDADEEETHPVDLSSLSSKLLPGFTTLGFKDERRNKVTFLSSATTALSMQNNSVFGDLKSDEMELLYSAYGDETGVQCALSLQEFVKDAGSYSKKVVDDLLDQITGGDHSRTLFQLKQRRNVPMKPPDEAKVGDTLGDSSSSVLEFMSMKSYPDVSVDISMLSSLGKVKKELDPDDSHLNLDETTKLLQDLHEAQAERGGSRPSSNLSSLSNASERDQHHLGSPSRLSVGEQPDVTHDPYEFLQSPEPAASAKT

The first test deals with Nanoluciferase-BRD9 fusion protein (3×FLAG-NLuc-BRD9) in SYO-1 cells (Homo sapiens (Human), UniProt Q9H8M2). The test can be described thus: SYO1 BRD9 NanoLuc degradation assay. It counts as cell-based. The settings on record: SYO-1 cells expressing 3×FLAG-NLuc-BRD9, 6 hours incubation, top dose 1 μM. The protocol:
Procedure: A stable SYO-1 cell line expressing 3×FLAG-NLuc-BRD9 was generated. On day 0 cells were seeded in 30 μL media into each well of 384-well cell culture plates. The seeding density was 8000 cells/well. On day 1, cells were treated with 30 nL DMSO or 30 nL of 3-fold serially DMSO-diluted compounds (10 points in duplicates with 1 μM as final top dose). Subsequently plates were incubated for 6 hours in a standard tissue culture incubator and equilibrated at room temperature for 15 minutes. Nanoluciferase activity was measured by adding 15 μL of freshly prepared Nano-Glo Luciferase Assay Reagent (Promega N1130), shaking the plates for 10 minutes and reading the bioluminescence using an EnVision reader.
Results: The Inhibition % was calculated using the following formula: % Inhibition=100×(LumHC−LumSample)/(LumHC−LumLC). DMSO treated cells are employed as High Control (HC) and 1 μM of a known BRD9 degrader standard treated cells are employed as Low Control (LC).
What is called IC50 is the concentration at which inhibition is half-maximal. `CNC(=O)N1CCc2c(-c3cc(OC)c(CN4CC5(CC(N)C5)C4)c(OC)c3)cn(C)c(=O)c2C1` [Compound B22] yielded an IC50 of no less than 1000 nM. Same read-out and setting: next, `CNC(=O)N1CCc2c(-c3cc(OC)c(CN4CCN(C5CNC5)CC4)c(OC)c3)cn(C)c(=O)c2C1` [Compound B23]: no less than 1000 nM; `CNC(=O)N1CCc2c(-c3cc(OC)c(CN4CCN(CC5CCN(c6ccc7c(c6)CN(C6CCC(=O)NC6=O)C7=O)CC5)CC4)c(OC)c3)cn(C)c(=O)c2C1` (centres unmarked) [Compound D39]: less than 10 nM. On the same count and under the same terms, the result for `CNC(=O)N1CCc2c(-c3cc(OC)c(CN4CCN(CC5CCN(c6ccc7c(c6)C(=O)N(C6CCC(=O)NC6=O)C7)CC5)CC4)c(OC)c3)cn(C)c(=O)c2C1` (centres unmarked) [Compound D40] reads less than 10 nM; that for `CNC(=O)N1Cc2c(c(-c3cc(OC)c(CN4CCN(CCC5CCN(c6ccc7c(c6)C(=O)N(C6CCC(=O)NC6=O)C7=O)CC5)CC4)c(OC)c3)cn(C)c2=O)CC1C` (centres unmarked) [Compound D41], less than 10 nM; that for `CNC(=O)N1CCc2c(-c3cc(OC)c(CN4C[C@@H](C)N(CCC5CCN(c6ccc7c(c6)C(=O)N(C6CCC(=O)NC6=O)C7=O)CC5)[C@@H](C)C4)c(OC)c3)cn(C)c(=O)c2C1` (some centres unmarked) [Compound D42], less than 10 nM.

`COCCNC(=O)N1CCc2c(-c3cc(OC)c(CN4CCN(CCC5CCN(c6ccc7c(c6)C(=O)N(C6CCC(=O)NC6=O)C7=O)CC5)CC4)c(OC)c3)cn(C)c(=O)c2C1` (centres unmarked) [Compound D43] returned an IC50 of less than 10 nM.

On to `[2H]C([2H])([2H])n1cc(-c2cc(OC)c(CN3CCC(CN4CCC5(CC4)CC(Oc4ccc6c(c4)C(=O)N(C4CCC(=O)NC4=O)C6=O)C5)CC3)c(OC)c2)c2c(c1=O)CN(C(=O)NC)CC2` (centres unmarked) [Compound D44], for which the concentration for half-maximal inhibition (IC50) is less than 10 nM. On the same count and under the same terms, the result for `[2H]C([2H])([2H])n1cc(-c2cc(OC)c(CN3CCN(CCC4CCN(c5ccc6c(c5)C(=O)N(C5CCC(=O)NC5=O)C6=O)CC4)CC3)c(OC)c2)c2c(c1=O)CN(C(=O)NC)CC2` (centres unmarked) [Compound D45] reads less than 10 nM.

The same test, now with this note: SYO-1 cells, 6 hours, Table 6A.
In turn, `CNC(=O)N1CCc2c(-c3cc(OC)c(CN4CCN(C(=O)CCCOc5cccc6c5C(=O)N(C5CCC(=O)NC5=O)C6=O)CC4)c(OC)c3)cn(C)c(=O)c2C1` (centres unmarked) [Compound D1, 5-(4-[[4-(4-[[2-(2,6-dioxopiperidin-3-yl)-1,3-dioxoisoindol-4-yl]oxy]butanoyl)piperazin-1-yl]methyl]-3,5-dimethoxyphenyl)-N,7-dimethyl-8-oxo-3,4-dihydro-1H-2,7-naphthyridine-2-carboxamide] registered an IC50 greater than 10 nM. On the same count and under the same terms, the result for `CNC(=O)N1CCc2c(-c3cc(OC)c(CN4CCN(C(=O)COc5cccc6c5C(=O)N(C5CCC(=O)NC5=O)C6=O)CC4)c(OC)c3)cn(C)c(=O)c2C1` (centres unmarked) [Compound D2, 5-(4-[[4-(2-[[2-(2,6-dioxopiperidin-3-yl)-1,3-dioxoisoindol-4-yl]oxy]acetyl)piperazin-1-yl]methyl]-3,5-dimethoxyphenyl)-N,7-dimethyl-8-oxo-3,4-dihydro-1H-2,7-naphthyridine-2-carboxamide] reads greater than 10 nM; that for `CNC(=O)N1CCc2c(-c3cc(OC)c(CN4CCC5(CC4)CN(C(=O)CCCOc4cccc6c4C(=O)N(C4CCC(=O)NC4=O)C6=O)CCO5)c(OC)c3)cn(C)c(=O)c2C1` (centres unmarked) [Compound D3, 5-(4-[[4-(4-[[2-(2,6-dioxopiperidin-3-yl)-1,3-dioxoisoindol-4-yl]oxy]butanoyl)-1-oxa-4,9-diazaspiro[5.5]undecan-9-yl]methyl]-3,5-dimethoxyphenyl)-N,7-dimethyl-8-oxo-3,4-dihydro-1H-2,7-naphthyridine-2-carboxamide], greater than 100 nM. With `CNC(=O)N1CCc2c(-c3cc(OC)c(CN4CCC5(CC4)CN(C(=O)CCCCOc4cccc6c4C(=O)N(C4CCC(=O)NC4=O)C6=O)CCO5)c(OC)c3)cn(C)c(=O)c2C1` (centres unmarked) [Compound D4, 5-(4-[[4-(5-[[2-(2,6-dioxopiperidin-3-yl)-1,3-dioxoisoindol-4-yl]oxy]pentanoyl)-1-oxa-4,9-diazaspiro[5.5]undecan-9-yl]methyl]-3,5-dimethoxyphenyl)-N,7-dimethyl-8-oxo-3,4-dihydro-1H-2,7-naphthyridine-2-carboxamide formic acid], the IC50 was greater than 10 nM. `COc1cc(-c2cn(C)c(=O)c3c2CCN(C(=O)NCCOCCOCCNc2cccc4c2CN(C2CCC(=O)NC2=O)C4=O)C3)cc(OC)c1CN(C)C` (centres unmarked) [Compound D5, 5-[4-[(dimethylamino)methyl]-3,5-dimethoxyphenyl]-N-[2-[2-(2-[[2-(2,6-dioxopiperidin-3-yl)-1-oxo-3H-isoindol-4-yl]amino]ethoxy)ethoxy]ethyl]-7-methyl-8-oxo-3,4-dihydro-1H-2,7-naphthyridine-2-carboxamide formic acid] gave an IC50 greater than 1000 nM.

`COc1cc(-c2cn(C)c(=O)c3c2CCN(C(=O)NCCN(C)CCNc2cccc4c2C(=O)N(C2CCC(=O)NC2=O)C4=O)C3)cc(OC)c1CN(C)C` (centres unmarked) [Compound D6, 5-[4-[(dimethylamino)methyl]-3,5-dimethoxyphenyl]-N-[2-[(2-[[2-(2,6-dioxopiperidin-3-yl)-1,3-dioxoisoindol-4-yl]amino]ethyl)(methyl)amino]ethyl]-7-methyl-8-oxo-3,4-dihydro-1H-2,7-naphthyridine-2-carboxamide] displayed an IC50 greater than 100 nM. Take `COc1cc(-c2cn(C)c(=O)c3c2CCN(C(=O)NCCN(C)CCNC(=O)COc2cccc4c2C(=O)N(C2CCC(=O)NC2=O)C4=O)C3)cc(OC)c1CN(C)C` (centres unmarked) [Compound D8, N-(2-[[2-(5-[4-[(dimethylamino)methyl]-3,5-dimethoxyphenyl]-7-methyl-8-oxo-3,4-dihydro-1H-2,7-naphthyridine-2-carbonylamino)ethyl](methyl)amino]ethyl)-2-[[2-(2,6-dioxopiperidin-3-yl)-1,3-dioxoisoindol-4-yl]oxy]acetamide formic acid]: the concentration for half-maximal inhibition (IC50) is greater than 100 nM. `COc1cc(-c2cn(C)c(=O)c3c2CCN(C(=O)NCCCCCCCCNc2ccc4c(c2)C(=O)N(C2CCC(=O)NC2=O)C4=O)C3)cc(OC)c1CN(C)C` (centres unmarked) [Compound D9, 5-(4-((dimethylamino)methyl)-3,5-dimethoxyphenyl)-N-(8-((2-(2,6-dioxopiperidin-3-yl)-1,3-dioxoisoindolin-5-yl)amino)octyl)-7-methyl-8-oxo-3,4,7,8-tetrahydro-2,7-naphthyridine-2 (1H)-carboxamide formic acid] gave a half-maximal inhibitory concentration (IC50) of less than 10 nM. On the same count and under the same terms, next, `COc1cc(-c2cn(C)c(=O)c3c2CCN(C(=O)NCCCCCCCCNC(=O)COc2cccc4c2C(=O)N(C2CCC(=O)NC2=O)C4=O)C3)cc(OC)c1CN(C)C` (centres unmarked) [Compound D10, 5-(4-((dimethylamino)methyl)-3,5-dimethoxyphenyl)-N-(8-(2-((2-(2,6-dioxopiperidin-3-yl)-1,3-dioxoisoindolin-4-yl)oxy)acetamido)octyl)-7-methyl-8-oxo-3,4,7,8-tetrahydro-2,7-naphthyridine-2 (1H)-carboxamide formic acid]: greater than 100 nM; `COc1cc(-c2cn(C)c(=O)c3c2CCN(C(=O)NCCCCCNc2cccc4c2C(=O)N(C2CCC(=O)NC2=O)C4=O)C3)cc(OC)c1CN(C)C` (centres unmarked) [Compound D11, 5-(4-((dimethylamino)methyl)-3,5-dimethoxyphenyl)-N-(5-((2-(2,6-dioxopiperidin-3-yl)-1,3-dioxoisoindolin-4-yl)amino)pentyl)-7-methyl-8-oxo-3,4,7,8-tetrahydro-2,7-naphthyridine-2 (1H)-carboxamide formic acid]: greater than 10 nM; `CNC(=O)N1CCc2c(-c3cc(OC)c(CN(C)CC(=O)NCCOCCOc4cccc5c4C(=O)N(C4CCC(=O)NC4=O)C5=O)c(OC)c3)cn(C)c(=O)c2C1` (centres unmarked) [Compound D13, 5-(4-[[([[2-(2-[[2-(2,6-dioxopiperidin-3-yl)-1,3-dioxoisoindol-4-yl]oxy]ethoxy)ethyl]carbamoyl]methyl)(methyl)amino]methyl]-3,5-dimethoxyphenyl)-N,7-dimethyl-8-oxo-3,4-dihydro-1H-2,7-naphthyridine-2-carboxamide]: greater than 1000 nM.

`CNC(=O)N1CCc2c(-c3cc(OC)c(CN4CC(NC(=O)CCCCCOc5cccc6c5C(=O)N(C5CCC(=O)NC5=O)C6=O)C4)c(OC)c3)cn(C)c(=O)c2C1` (centres unmarked) [Compound D16, 5-(4-[[3-(6-[[2-(2,6-dioxopiperidin-3-yl)-1,3-dioxoisoindol-4-yl]oxy]hexanamido)azetidin-1-yl]methyl]-3,5-dimethoxyphenyl)-N,7-dimethyl-8-oxo-3,4-dihydro-1H-2,7-naphthyridine-2-carboxamide formic acid] came in with an IC50 greater than 10 nM. Still for that read-out and setting: the result for `CNC(=O)N1CCc2c(-c3cc(OC)c(CN(C)C(=O)CCCCCOc4cccc5c4C(=O)N(C4CCC(=O)NC4=O)C5=O)c(OC)c3)cn(C)c(=O)c2C1` (centres unmarked) [Compound D25, 5-[4-[(6-[[2-(2,6-dioxopiperidin-3-yl)-1,3-dioxoisoindol-4-yl]oxy]-N-methylhexanamido)methyl]-3,5-dimethoxyphenyl]-N,7-dimethyl-8-oxo-3,4-dihydro-1H-2,7-naphthyridine-2-carboxamide] reads less than 10 nM.

The test is the same for the next values; noted with them: SYO-1 cells, 6 hours, Table 6A; read-out: SYO1 BRD9-NanoLuc degradation IC50.
As for `COc1cc(-c2cn(C)c(=O)c3c2CCN(C(=O)NCCS(=O)(=O)CCNc2cccc4c2C(=O)N(C2CCC(=O)NC2=O)C4=O)C3)cc(OC)c1CN(C)C` (centres unmarked) [Compound D7, 5-[4-[(dimethylamino)methyl]-3,5-dimethoxyphenyl]-N-[2-(2-[[2-(2,6-dioxopiperidin-3-yl)-1,3-dioxoisoindol-4-yl]amino]ethanesulfonyl)ethyl]-7-methyl-8-oxo-3,4-dihydro-1H-2,7-naphthyridine-2-carboxamide formic acid], the DC50 was greater than 10 nM.
